Some test systems named below: Escherichia coli JJ2489; Escherichia coli; Escherichia coli J2210; Escherichia coli JW0013; Escherichia coli MC1041; Escherichia coli BW25113; Escherichia coli JW55034; Pseudomonas aeruginosa; Micrococcus sp. S1.634; Bacillus subtilis DB430; Staphylococcus aureus; Klebsiella pneumoniae.
What all share (experiment): ≥ marks a high value that may be exact or a test limit, other limits are often not marked, values filed in µg/mL are converted to µM
Experiment [1] has as its system Salmonella enterica serovar Tennessee.
The subject of experiment [2] is Salmonella enterica subsp. enterica serovar Newport.
The test system of experiment [3] is Salmonella typhimurium SL1344.
The test system of experiment [4] is Salmonella enterica subsp. enterica serovar Enteritidis MH91989.
Experiment [5] deals with Escherichia coli JW2778 ΔygdD.
The test system of experiment [6] is Salmonella enterica subsp. enterica serovar Infantis.
For experiment [7], the system named is Escherichia coli JW0368 ΔsbmA.
For experiment [8], the system named is Candida albicans ATCC 10231.
Experiment [9] has as its system Escherichia coli ATCC 2592.
For experiment [10], the system named is Pseudomonas aeruginosa ATCC 10145.
The test system of experiment [11] is Cryptococcus neoformans ATCC 32045.
Experiment [12] deals with Staphylococcus aureus ATCC 33591.
The test system of experiment [13] is Klebsiella pneumoniae J3702.
Experiment [14] has as its system Acinetobacter baumannii Josh 230.
The test system of experiment [15] is Enterobacter asburiae St. L P23.
The subject of experiment [16] is Enterobacter cloacae BB2013-32.
The test system of experiment [17] is Klebsiella pneumoniae BB2009-209.
The subject of experiment [18] is Escherichia coli ATCC 25922.
The test system of experiment [19] is Pseudomonas aeruginosa BB2013-100.
Experiment [20] relates to Enterobacter cloacae St. L P23.
The subject of experiment [21] is Pseudomonas aeruginosa J4228.
Experiment [22] relates to Klebsiella aerogenes St. L P63.
Experiment [23] deals with Escherichia coli BB2013-30.
Experiment [24] concerns Acinetobacter baumannii Josh 28.
Experiment [25] concerns Enterobacter cloacae BB2012-181.
The test system of experiment [26] is Pseudomonas aeruginosa ATCC 27853.
Experiment [27] relates to Klebsiella pneumoniae Oschner KP-1.
The subject of experiment [28] is Escherichia coli ARLG-1012.
For experiment [29], the system named is Acinetobacter baumannii b-01.
In experiment [30] the test system is Acinetobacter baumannii b-04.
Experiment [31] concerns Salmonella enterica subsp. enterica serovar Paratyphi B CMCC 50094.
Experiment [32] deals with Acinetobacter baumannii b-03.
The test system of experiment [33] is Bacillus pumilus CMCC 63202.
For experiment [34], the system named is Escherichia coli ATCC 8099.
For experiment [35], the system named is Staphylococcus aureus CMCC 26003.
In experiment [36] the test system is Micrococcus luteus CMCC 28001.
Experiment [37] relates to Staphylococcus epidermidis.
Experiment [38] relates to Klebsiella pneumoniae CMCC 46117.
In experiment [39] the test system is Pseudomonas aeruginosa CMCC 10104.
Experiment [40] concerns Acinetobacter baumannii b-02.

In brackets after ≈: the same amount, converted by molar mass. Several values for one entry are separate records, joined by “and”; a condition that tells them apart may be missing. Equal entries are not always repeated. A value given as a limit tells only on which side of the number the result lay.

For orientation: MIC means the lowest concentration found to suppress growth. Higher therefore signals weaker potency. Take `CC(C)C[C@H](NC(=O)[C@H](CCCN=C(N)N)NC(=O)[C@@H]1CCCN1C(=O)[C@H](Cc1cnc[nH]1)NC(=O)[C@@H]1CCCN1C(=O)[C@@H]1CCCN1C(=O)[C@H](CCCN=C(N)N)NC(=O)[C@@H]1CCCN1C(=O)[C@H](CCC(N)=O)NC(=O)[C@@H]1CCCN1C(=O)[C@H](CCCN=C(N)N)NC(=O)[C@H](Cc1ccc(O)cc1)NC(=O)[C@@H](NC(=O)[C@@H]1CCCN1C(=O)[C@H](CCCCN)NC(=O)[C@H](CC(N)=O)NC(=O)[C@H](CC(N)=O)NC(=O)CN)C(C)C)C(=O)O` [GNNKPVYRPQPRPPHPRL]: the MIC against Escherichia coli JJ2489 was found to be 0.034 µM (≈ 0.0722 µg/mL); in [1], 0.024 µM (≈ 0.051 µg/mL); in experiment [2], 0.017 µM (≈ 0.0361 µg/mL); in experiment [3], 0.034 µM (≈ 0.0722 µg/mL); against Escherichia coli it was 0.048 µM (≈ 0.102 µg/mL); in experiment [4], 0.031 µM (≈ 0.0658 µg/mL). For the same compound, the MIC in [5] was 0.024 µM (≈ 0.051 µg/mL); in experiment [6] it was 0.024 µM (≈ 0.051 µg/mL); against Escherichia coli J2210, 0.034 µM (≈ 0.0722 µg/mL); against Escherichia coli JW0013, 0.012 µM (≈ 0.0255 µg/mL); in experiment [7], 0.096 µM (≈ 0.204 µg/mL); in the experiment with Escherichia coli MC1041 it was 0.024 µM (≈ 0.051 µg/mL).

Turning to `NCCCC[C@H](NC(=O)[C@H](Cc1ccccc1)NC(=O)[C@H](CCCCN)NC(=O)[C@H](CCCCN)NC(=O)[C@H](Cc1ccccc1)NC(=O)[C@H](CCCCN)NC(=O)[C@H](CCCCN)NC(=O)[C@H](Cc1ccccc1)NC(=O)[C@H](CCCCN)NC(=O)[C@H](CCCCN)NC(=O)[C@H](Cc1ccccc1)NC(=O)[C@H](CCCCN)NC(=O)[C@H](CCCCN)NC(=O)[C@H](Cc1ccccc1)NC(=O)[C@H](CCCCN)NC(=O)[C@H](CCCCN)NC(=O)[C@H](Cc1ccccc1)NC(=O)[C@H](CCCCN)NC(=O)[C@H](CCCCN)NC(=O)[C@H](Cc1ccccc1)NC(=O)[C@H](CCCCN)NC(=O)[C@H](CCCCN)NC(=O)[C@H](Cc1ccccc1)NC(=O)[C@@H](N)CCCCN)C(=O)O` [KFKKFKKFKKFKKFKKFKKFKKFK], the MIC in experiment [8] is 54.5 µM (≈ 177 µg/mL); in experiment [9], 13.7 µM (≈ 44.5 µg/mL); in experiment [10], no less than 77 µM; in experiment [11] it was 15.3 µM (≈ 49.8 µg/mL); in experiment [12], no less than 77 µM.

As to `CC[C@H](C)[C@H](NC(=O)[C@H](CCCCN)NC(=O)[C@H](CCCCN)NC(=O)[C@@H](NC(=O)[C@H](C)NC(=O)[C@H](CCCCN)NC(=O)[C@@H](NC(=O)[C@@H](NC(=O)[C@H](CC(C)C)NC(=O)[C@H](CCCCN)NC(=O)[C@H](C)NC(=O)[C@H](Cc1c[nH]c2ccccc12)NC(=O)CN)[C@@H](C)CC)[C@@H](C)O)[C@@H](C)CC)C(N)=O` [GWAKLITKAIKKI], the MIC was 10.9 µM (≈ 16 µg/mL) in experiment [13]; 10.9 µM (≈ 16 µg/mL) in experiment [14]; 2.72 µM (≈ 4 µg/mL) with Escherichia coli BW25113; 21.8 µM (≈ 32 µg/mL) in [15]; 10.9 µM (≈ 16 µg/mL) in experiment [16]; 21.8 µM (≈ 32 µg/mL) in experiment [17]. Also, the MIC in [18] was 12 µM and 24.1 µM; in experiment [19], 21.8 µM (≈ 32 µg/mL); in experiment [20] it was 21.8 µM (≈ 32 µg/mL); in experiment [21] it was 10.9 µM (≈ 16 µg/mL); in [22] it was 10.9 µM (≈ 16 µg/mL); in [23] it was 5.44 µM (≈ 7.99 µg/mL). Moreover, the minimum inhibitory concentration (MIC) came out at 2.72 µM (≈ 4 µg/mL) in experiment [24]; 10.9 µM (≈ 16 µg/mL) in [25]; 5.44 µM (≈ 7.99 µg/mL) in [26]; 21.8 µM (≈ 32 µg/mL) in [27]; 2.72 µM (≈ 4 µg/mL) against Escherichia coli JW55034; 2.72 µM (≈ 4 µg/mL) in experiment [28].

For the compound `CC[C@H](C)[C@H](NC(=O)[C@H](Cc1ccccc1)NC(=O)[C@H](CO)NC(=O)[C@H](CCCCN)NC(=O)[C@H](Cc1c[nH]c2ccccc12)NC(=O)[C@@H](N)CCCCN)C(=O)N[C@@H](CCCCN)C(=O)N[C@@H](CCCCN)C(=O)N[C@@H](CC(C)C)C(=O)N[C@H](C(=O)N[C@@H](CCCCN)C(=O)N[C@@H](CCCCN)C(=O)N[C@@H](Cc1ccccc1)C(=O)N[C@@H](CC(C)C)C(=O)N[C@@H](Cc1cnc[nH]1)C(=O)N[C@@H](CO)C(=O)N[C@@H](C)C(=O)N[C@@H](CCCCN)C(=O)N[C@@H](CCCCN)C(=O)N[C@@H](Cc1ccccc1)C(N)=O)[C@@H](C)O` [KWKSFIKKLTKKFLHSAKKF], the MIC in [29] was 0.321 µM (≈ 0.8 µg/mL); in the experiment with Pseudomonas aeruginosa, 0.641 µM and 1.13 µM; in [30] it was 0.641 µM (≈ 1.6 µg/mL); in experiment [31], 0.802 µM (≈ 2 µg/mL); against Micrococcus sp. S1.634, 0.401 µM (≈ 1 µg/mL); in experiment [32], 1.3 µM (≈ 3.25 µg/mL). In addition, the MIC turned out to be 0.802 µM (≈ 2 µg/mL) in the experiment on Bacillus subtilis DB430; 0.201 µM (≈ 0.5 µg/mL) in experiment [33]; 0.201 µM (≈ 0.5 µg/mL) in experiment [34]; 0.401 µM (≈ 1 µg/mL) in the experiment on Staphylococcus aureus; 0.567 µM (≈ 1.41 µg/mL) in the experiment on Klebsiella pneumoniae; 0.201 µM (≈ 0.5 µg/mL) in experiment [35]. The MIC in [36] worked out at 0.802 µM (≈ 2 µg/mL); in experiment [37], 0.802 µM (≈ 2 µg/mL); in experiment [38], 0.802 µM (≈ 2 µg/mL); in experiment [39] it was 1.6 µM (≈ 4 µg/mL); in [40] it was 1.25 µM (≈ 3.12 µg/mL).

For the origin of these results see DBAASP.
